Like-named read-outs stand apart in the source and are kept apart here. Some results are limits rather than exact numbers.

The values that follow come from patent US20250320228A1, “PYRIDO[3,2-D]PYRIMIDINES AS HPK1 INHIBITORS” (Merck Patent GmbH, priority 2022, published 2025).

The target of test [1] is full-length human HPK1 (MAP4K1) (Homo sapiens (Human), UniProt Q92918). Nature of the test: HPK1 kinase assay (biochemical, ADP-Glo). The following applies: read-out: HPK1 enzymatic IC50. From the text:
HPK1 kinase assay (Biochemical assay).
A recombinant fusion protein consisting of full-length human HPK1 (MAP4K1) with an N-terminal Glutatione S-transferase (GST) tag was produced in insect cells Sf21 using the baculovirus expression system. GST-HPK1 protein was purified from cell lysates by glutathione Sepharose affinity chromatography. The assay is run in three continuous steps: 1) the HPK1 enzymatic kinase reaction, 2) an ATP depletion, and 3) the ADP detection, the steps 2 and 3 are performed with ADP-Glo™ Kinase Assay kit from Promega (V9101). Test compounds were prepared by 10-point serial dilution in dimethyl sulfoxide (DMSO) and 100 nL of each dilution was spotted onto a 384-well Optiplate (Perkin Elmer and Cat #6007299) by Labcyte Echo. 5 μL kinase reaction buffer (0.02% Brij-35, 2 mM DTT, 50 mM HEPES pH 7.5, MgCl2 10 mM, BSA 0.01% and β-glycerophosphate 12.5 mM) containing HPK1 (3.2 nM) enzyme was transferred to each well and incubated for 15 minutes at room temperature at 60% humidity. The enzymatic reaction was started by adding 5 μl of Start-Mix (10 μM ATP and 3.235 μM MBP). After 120 minutes, the reaction was stopped by adding 5 μL of ADP-Glo reagent (Promega, V9101) and incubating for 40 min. in the dark at 23° C. To determine the level of ADP, 10 μl ADP-Glo Detection solution was added and incubated for 1 hour at 23° C. in the dark. The plate was transferred to a Perkin Elmer EnVision (2104 Multilabel Reader) for luminescence detection and percent inhibition activity and IC50 value were determined using Genedata Screener.
On the technique in general: ADP-Glo first removes unused ATP, then detects ADP through luciferase.

In test [2] the test system is HPK1 pSLP76 (Ser376). The experiment in a line: Cellular assay phospho-SLP-76 (Ser376). In kind it is cell-based, human. The following applies: read-out: HPK1 pSLP76 IC50. As to the method:
Cellular Assay—Phospho-SLP-76 (Ser376).
Inhibition of HPK1 enzymatic activity in cells was determined by detection of SLP76 phosphorylation at Ser376 residue in lysate from Jurkat (human) and EL-4 (mouse) cells. Jurkat and EL-4 cells express both HPK1 and SLP76 naturally. All cells were cultured in RPMI 1640 media containing 10% heat inactivated fetal bovine serum (FBS) and 1× Penicillin-Streptomycin. In either Jurkat or El-4 assay, cells were pre-incubated with test compounds prior to T cell stimulation by respective αCD3/αCD28 Dynabeads™. For detection, plates were read on the Envision and percent inhibition and IC50 were determined by Smart fit in Genedata Analyzer.
For Jurkat cells: 35 μL cell suspension were dispensed at a density of 30,000 cells/well in 384-well plates containing HBSS (Gibco, 14025076)+0.1% BSA). 10-point logarithmic serial dilution of test compounds in DMSO were prepared by a Hamilton automated liquid handling robot and 35 nL was transferred into each well by an Echo liquid handler. After 60 min. pre-incubation, the cells were stimulated by adding 5 μL human T activator αCD3/αCD28 Dynabeads™ (Gibco, 11132D) at 1.2×107 beads/ml for 15 minutes at 37° C. Detection of Ser376 phosphorylation status was accomplished by first adding 10 μL of 5× AlphaLISA lysis buffer (Perkin Elmer, ALSU-PSLP-A500) to each well of the cell plate using a Multidrop Combi (5840300), followed by 20 minutes shaking. 10 μL cell lysate from each treatment were then transferred to a white 384-well plate (Corning 3572) and incubated with AlphaLISA acceptor beads for one hour (AlphaLISA SureFire Ultra p-SLP76 (Ser376), Perkin Elmer, ALSU-PSLP-A500), and donor beads for additional 2 hours at room temperature in the dark. […]

Where [3] appears, read: GST-HPK1 3.2 nM, 10 μM ATP, MBP substrate, ADP-Glo.
Where [4] appears, read: SLP76 Ser376 phosphorylation after αCD3/αCD28 stimulation, Jurkat (human) or EL-4 (mouse) cells, table does not say which.

full-length human HPK1 (MAP4K1), sequence (Q92918 whole entry): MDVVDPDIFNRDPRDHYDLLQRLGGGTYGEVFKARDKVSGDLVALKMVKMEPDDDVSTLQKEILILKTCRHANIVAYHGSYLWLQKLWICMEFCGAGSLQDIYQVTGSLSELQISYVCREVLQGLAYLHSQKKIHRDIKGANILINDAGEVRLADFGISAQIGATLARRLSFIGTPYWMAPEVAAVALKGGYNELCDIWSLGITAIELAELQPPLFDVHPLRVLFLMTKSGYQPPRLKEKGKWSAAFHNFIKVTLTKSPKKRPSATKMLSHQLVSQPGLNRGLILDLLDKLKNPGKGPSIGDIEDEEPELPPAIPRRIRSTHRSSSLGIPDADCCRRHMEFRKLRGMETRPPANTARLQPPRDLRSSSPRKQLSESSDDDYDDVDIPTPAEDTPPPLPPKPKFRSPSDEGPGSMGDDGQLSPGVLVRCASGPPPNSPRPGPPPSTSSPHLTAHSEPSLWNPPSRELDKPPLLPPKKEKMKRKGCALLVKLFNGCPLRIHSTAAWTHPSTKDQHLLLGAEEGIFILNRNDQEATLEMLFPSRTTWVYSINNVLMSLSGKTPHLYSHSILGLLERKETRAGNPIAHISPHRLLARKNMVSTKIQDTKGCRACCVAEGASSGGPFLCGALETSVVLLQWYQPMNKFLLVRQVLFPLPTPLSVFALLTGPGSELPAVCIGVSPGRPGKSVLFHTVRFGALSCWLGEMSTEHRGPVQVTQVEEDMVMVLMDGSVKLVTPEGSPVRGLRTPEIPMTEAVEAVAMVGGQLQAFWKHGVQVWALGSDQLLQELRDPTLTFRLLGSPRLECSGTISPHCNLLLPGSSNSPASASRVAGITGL

As to `CC(C)(O)COc1ccc(-c2cc(C(N)=O)c3ncnc(N[C@H]4CCCNC4)c3n2)cc1` [Example 62, 6-[4-(2-hydroxy-2-methylpropoxy)phenyl]-4-[(3S)-piperidin-3-ylamino]pyrido[3,2-d]pyrimidine-8-carboxamide], the IC50 (usually the concentration needed to halve the response being measured) in test [1] (setting [3]) is under 100 nM; in test [2] (setting [4]), under 500 nM.
The matching figures for `CC(C)(O)C(F)(F)Oc1ccc(-c2cc(C(N)=O)c3ncnc(N[C@H]4CCCNC4)c3n2)cc1` [Example 47, (S)-6-(4-(1,1-difluoro-2-hydroxy-2-methylpropoxy)phenyl)-4-(piperidin-3-ylamino)pyrido[3,2-d]pyrimidine-8-carboxamide]: under 100 nM and 500 to 1000 nM.
In the case of `NC(=O)c1cc(-c2cc(F)c(OCC3(O)CCOCC3)c(F)c2)nc2c(N[C@H]3CCCNC3)ncnc12` [Example 43, (S)-6-(3,5-difluoro-4-((4-hydroxytetrahydro-2H-pyran-4-yl)methoxy)phenyl)-4-(piperidin-3-ylamino)pyrido[3,2-d]pyrimidine-8-carboxamide], the IC50 in test [1] (setting [3]) is under 100 nM; in test [2] (setting [4]), under 500 nM.
The matching figures for `CC(C)(O)COc1ccc(-c2cc(C(N)=O)c3ncnc(N[C@@H]4CNC[C@@H](F)C4)c3n2)c(C#N)c1` [Example 1, 6-(2-cyano-4-(2-hydroxy-2-methylpropoxy)phenyl)-4-(((3S,5S)-5-fluoropiperidin-3-yl)amino)pyrido[3,2-d]pyrimidine-8-carboxamide]: under 100 nM and under 500 nM.
For `COc1ccccc1-c1cc(C(N)=O)c2ncnc(N[C@H]3CCCNC3)c2n1` [Example 72, 6-(2-methoxyphenyl)-4-[(3S)-piperidin-3-ylamino]pyrido[3,2-d]pyrimidine-8-carboxamide], the values for the IC50 in test [1] (setting [3]) and in test [2] (setting [4]) were under 100 nM and over 1000 nM, respectively.
The matching figures for `NC(=O)c1cc(-c2ccc(OCC3(O)CCCC3)cc2)nc2c(N[C@@H]3CNC[C@@H](F)C3)ncnc12` [Example 35, 4-(((3S,5S)-5-fluoropiperidin-3-yl)amino)-6-(4-((1-hydroxycyclopentyl)methoxy)phenyl)pyrido[3,2-d]pyrimidine-8-carboxamide]: under 100 nM and 500 to 1000 nM.
The matching figures for `C[C@@H]1CN(Cc2ccc(-c3cc(C(N)=O)c4ncnc(N[C@H]5CCCNC5)c4n3)cc2)C[C@@H](C)O1` [Example 68, 6-(4-[[(2R,6R)-2,6-dimethylmorpholin-4-yl]methyl]phenyl)-4-[(3S)-piperidin-3-ylamino]pyrido[3,2-d]pyrimidine-8-carboxamide]: under 100 nM and 500 to 1000 nM.
The matching figures for `NC(=O)c1cc(-c2ccc(CN3CCOCC3)cc2)nc2c(N[C@@]3(c4ccccc4)CCCNC3)ncnc12` [Example 18]: 100 to 1000 nM and over 1000 nM.
As to `NC(=O)c1cc(-c2ccc(CN3C4COCC3C4)cc2)nc2c(N[C@H]3CCCNC3)ncnc12` [Example 67, 6-(4-[3-oxa-6-azabicyclo [3.1.1]heptan-6-ylmethyl]phenyl)-4-[(3S)-piperidin-3-ylamino]pyrido[3,2-d]pyrimidine-8-carboxamide], the 50% inhibitory concentration (IC50) in test [1] (setting [3]) is under 100 nM; in test [2] (setting [4]), over 1000 nM.
The matching figures for `Cn1cc(-c2cc(C(N)=O)c3ncnc(N[C@@H]4CNC[C@@H](F)C4)c3n2)cc1C#N` [Example 7, 6-(5-cyano-1-methyl-1H-pyrrol-3-yl)-4-{[(3S,5S)-5-fluoropiperidin-3-yl]amino}pyrido[3,2-d]pyrimidine-8-carboxamide]: under 100 nM and under 500 nM.
Turning to `C[C@@H](O)COc1ccc(-c2cc(C(N)=O)c3ncnc(N[C@H]4CCCNC4)c3n2)cc1` [Example 51, 6-(4-((R)-2-hydroxypropoxy)phenyl)-4-(((S)-piperidin-3-yl)amino)pyrido[3,2-d]pyrimidine-8-carboxamide], the 50% inhibitory concentration (IC50) in test [1] is under 100 nM; in test [2] (Homo sapiens, Jurkat), under 500 nM.
Turning to `CCn1ncc(-c2cc(C(N)=O)c3ncnc(N[C@@H]4CNC[C@@H](F)C4)c3n2)c1C` [Example 8, 6-(1-ethyl-5-methyl-1H-pyrazol-4-yl)-4-(((3S,5S)-5-fluoropiperidin-3-yl)amino)pyrido[3,2-d]pyrimidine-8-carboxamide], the 50% inhibitory concentration (IC50) in test [1] (setting [3]) was under 100 nM; in test [2] (setting [4]) it was under 500 nM.
The matching figures for `CC(O)(C#N)COc1ccc(-c2cc(C(N)=O)c3ncnc(N[C@H]4CCCNC4)c3n2)cc1` (stereo partly drawn) [Example 40, 6-(4-(2-cyano-2-hydroxypropoxy)phenyl)-4-(((S)-piperidin-3-yl)amino)pyrido[3,2-d]pyrimidine-8-carboxamide]: under 100 nM and over 1000 nM.
The matching figures for `Cc1nn(C)cc1-c1cc(C(N)=O)c2ncnc(N[C@H]3CCCNC3)c2n1` [Example 79, 6-(1,3-dimethyl-1H-pyrazol-4-yl)-4-{[(3S)-piperidin-3-yl]amino}pyrido[3,2-d]pyrimidine-8-carboxamide]: under 100 nM and over 1000 nM.
In the case of `C[C@@H]1COC[C@H](C)N1Cc1ccc(-c2cc(C(N)=O)c3ncnc(N[C@@H]4CNCCC4(F)F)c3n2)cc1` [Example 29, 4-[[(3R)-4,4-difluoropiperidin-3-yl]amino]-6-(4-[[(3R,5S)-3,5-dimethylmorpholin-4-yl]methyl]phenyl)pyrido[3,2-d]pyrimidine-8-carboxamide], the values for the concentration for half-maximal inhibition (IC50) in test [1] (setting [3]) and in test [2] (setting [4]) were under 100 nM and over 1000 nM, respectively.
The matching figures for `NC(=O)c1cc(-c2ccc(C3(O)COC3)cc2)nc2c(N[C@H]3CCCNC3)ncnc12` [Example 82, 6-[4-(3-hydroxyoxetan-3-yl)phenyl]-4-{[(3S)-piperidin-3-yl]amino}pyrido[3,2-d]pyrimidine-8-carboxamide]: under 100 nM and 500 to 1000 nM.
With `N#Cc1ccccc1-c1cc(C(N)=O)c2ncnc(N[C@H]3CCCNC3)c2n1` [Example 86, 6-(2-cyanophenyl)-4-{[(3S)-piperidin-3-yl]amino}pyrido[3,2-d]pyrimidine-8-carboxamide], the IC50 was under 100 nM in test [1] (setting [3]) and 500 to 1000 nM in test [2] (setting [4]).
The matching figures for `CC1(F)CN(Cc2ccc(-c3cc(C(N)=O)c4ncnc(N[C@H]5CCCNC5)c4n3)cc2)C1` [Example 56, (S)-6-(4-((3-fluoro-3-methylazetidin-1-yl)methyl)phenyl)-4-(piperidin-3-ylamino)pyrido[3,2-d]pyrimidine-8-carboxamide]: under 100 nM and under 500 nM.
The matching figures for `NC(=O)c1cc(-c2ccc(CN3CC4CCC(C3)O4)cc2)nc2c(N[C@H]3CCCNC3)ncnc12` [Example 65, 6-(4-[8-oxa-3-azabicyclo [3.2.1]octan-3-ylmethyl]phenyl)-4-[(3S)-piperidin-3-ylamino]pyrido[3,2-d]pyrimidine-8-carboxamide]: under 100 nM and under 500 nM.
The matching figures for `NC(=O)c1cc(-c2ccc(CN3C4COCC3COC4)cc2)nc2c(N[C@H]3CCCNC3)ncnc12` [Example 64, 6-(4-[3,7-dioxa-9-azabicyclo [3.3.1]nonan-9-ylmethyl]phenyl)-4-[(3S)-piperidin-3-ylamino]pyrido[3,2-d]pyrimidine-8-carboxamide]: under 100 nM and under 500 nM.
As to `NC(=O)c1cc(-c2ccc(CC3(F)CCOCC3)cc2)nc2c(N[C@H]3CCCNC3)ncnc12` [Example 44, (S)-6-(4-((4-fluorotetrahydro-2H-pyran-4-yl)methyl)phenyl)-4-(piperidin-3-ylamino)pyrido[3,2-d]pyrimidine-8-carboxamide], the IC50 in test [1] (setting [3]) was under 100 nM; in test [2] (setting [4]), under 500 nM.
